Measured values from patent US9533991B2, “Inhibitors of Bruton's tyrosine kinase” (PHARMACYCLICS LLC, priority 2014, dated 2017).

How the values were obtained:
Btk [1] = target: T1, Btk (Homo sapiens, UniProt Q06187); test: Inhibition of a panel of kinases: Btk; format: biochemical; conditions: kinase panel, Table 2
Description: (§1) The degree of inhibition of a panel of kinases is determined using assays similar to the kinase assay described in Example 53.

EGFR = EGFR (Homo sapiens, UniProt P00533); test: Inhibition of a panel of kinases: EGFR; format: biochemical; conditions: kinase panel, Table 2
EGFR, sequence (P00533 25-1210, species assumed): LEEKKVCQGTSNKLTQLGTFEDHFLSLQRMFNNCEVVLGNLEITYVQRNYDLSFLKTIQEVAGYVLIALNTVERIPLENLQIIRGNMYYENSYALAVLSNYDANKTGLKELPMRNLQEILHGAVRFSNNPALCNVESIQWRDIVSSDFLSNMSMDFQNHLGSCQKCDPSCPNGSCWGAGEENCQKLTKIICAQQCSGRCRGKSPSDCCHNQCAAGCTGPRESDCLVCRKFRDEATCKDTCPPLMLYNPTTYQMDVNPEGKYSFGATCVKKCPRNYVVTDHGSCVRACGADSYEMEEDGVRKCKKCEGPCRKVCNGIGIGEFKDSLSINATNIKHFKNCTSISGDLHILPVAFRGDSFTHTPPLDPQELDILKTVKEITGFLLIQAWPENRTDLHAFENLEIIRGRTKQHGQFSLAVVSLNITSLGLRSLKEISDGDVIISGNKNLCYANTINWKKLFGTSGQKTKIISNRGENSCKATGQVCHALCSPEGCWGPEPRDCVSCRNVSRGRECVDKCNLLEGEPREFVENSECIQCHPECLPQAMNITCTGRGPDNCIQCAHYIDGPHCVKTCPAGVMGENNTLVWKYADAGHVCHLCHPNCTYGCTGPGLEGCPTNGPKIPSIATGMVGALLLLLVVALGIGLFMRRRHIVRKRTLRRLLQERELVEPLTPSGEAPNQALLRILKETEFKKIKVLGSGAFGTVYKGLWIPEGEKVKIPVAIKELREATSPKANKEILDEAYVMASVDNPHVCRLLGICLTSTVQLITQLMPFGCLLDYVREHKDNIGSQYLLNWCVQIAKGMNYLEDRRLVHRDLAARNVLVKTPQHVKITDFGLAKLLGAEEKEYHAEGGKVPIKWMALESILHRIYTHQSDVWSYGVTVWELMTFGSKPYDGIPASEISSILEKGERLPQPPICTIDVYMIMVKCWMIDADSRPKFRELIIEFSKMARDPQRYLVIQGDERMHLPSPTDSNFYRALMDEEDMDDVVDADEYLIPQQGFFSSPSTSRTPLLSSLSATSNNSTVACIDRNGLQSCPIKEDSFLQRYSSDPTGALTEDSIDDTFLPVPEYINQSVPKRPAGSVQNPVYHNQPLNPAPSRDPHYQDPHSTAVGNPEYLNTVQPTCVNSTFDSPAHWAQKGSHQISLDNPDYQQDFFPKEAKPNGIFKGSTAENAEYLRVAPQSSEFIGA
Description: as §1

LCK = LCK (Homo sapiens, UniProt P06239); test: Inhibition of a panel of kinases: LCK; format: biochemical; conditions: kinase panel, Table 2
LCK, sequence (P06239 whole entry, species assumed): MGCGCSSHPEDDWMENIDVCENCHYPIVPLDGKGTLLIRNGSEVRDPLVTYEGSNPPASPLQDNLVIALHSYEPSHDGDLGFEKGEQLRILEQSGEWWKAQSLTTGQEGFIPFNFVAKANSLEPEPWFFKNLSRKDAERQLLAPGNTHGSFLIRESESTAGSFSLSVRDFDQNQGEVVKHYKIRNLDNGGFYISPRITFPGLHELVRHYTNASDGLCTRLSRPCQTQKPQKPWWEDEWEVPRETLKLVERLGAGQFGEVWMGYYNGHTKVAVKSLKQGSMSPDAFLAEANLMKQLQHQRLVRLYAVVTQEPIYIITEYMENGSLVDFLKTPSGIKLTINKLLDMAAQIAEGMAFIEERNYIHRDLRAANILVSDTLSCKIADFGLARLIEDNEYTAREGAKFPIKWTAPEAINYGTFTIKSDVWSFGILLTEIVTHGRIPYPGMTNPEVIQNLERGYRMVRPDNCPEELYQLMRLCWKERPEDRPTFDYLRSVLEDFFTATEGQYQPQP
Description: as §1

lymphoma cell line DOHH2 = test: Lymphoma cell assay (anti-IgG stimulated CD69, FACS); format: cell-based; conditions: DOHH-2; DOHH2 cells stimulated with anti-human IgG F(ab')2 10 μg/mL, 14 to 20 hours; read-out: IC50 (50% decrease in CD69 fluorescence on cell surface)
Description: Cells of lymphoma cell line DOHH2 were seeded in 96-well plates in standard growth media (RPMI+10% fetal calf serum). Compounds were added in an 8-point dilution series ranging from 10 to 0.004 μM with DMSO at 0.1% final concentration in all wells. Cells were then stimulated with a F(ab′)2 fragment of anti-human IgG at 10 μg/mL for 14 to 20 hours before staining for FACS analysis. Cells were incubated with fluorescent-labeled anti-CD69 antibody for 30 minutes on ice in FACS buffer and analyzed on the FACSCanto flowcytometry. The IC50, the concentration that results in a 50% decrease in intensity of fluorescence detected on the cell surface, was calculated using the Prizm software to fit the dose-response curve.

Btk [2] = target: T1, Btk; test: Btk in vitro inhibitory activity (Method A, B or C); format: biochemical; set-up: purified from insect cells as a full-length construct containing a N-terminal 6×-His tag; His6 (N); made in house; host or cells: insect cells (baculovirus, Sf21); conditions: one of the methods of Example 53a, 53b, 53c
Description: Btk kinase activity is determined using a time-resolved fluorescence resonance energy transfer (TR-FRET) methodology. Measurements are performed in a reaction volume of 50 μL using 96-well assay plates. Kinase enzyme, inhibitor, ATP (at the Km for the kinase), and 1 μM peptide substrate (Biotin-AVLESEEELYSSARQ-NH2 (SEQ ID NO: 1)) are incubated in a reaction buffer composed of 20 mM Tris, 50 mM NaCl, MgCl2 (5-25 mM depending on the kinase), MnCl2 (0-10 mM), 1 mM DTT, 0.1 mM EDTA, 0.01% bovine serum albumin, 0.005% Tween-20, and 10% DMSO at pH 7.4 for one hour. The reaction is quenched by the addition of 1.2 equivalents of EDTA (relative to divalent cation) in 25 μL of 1× Lance buffer (Perkin-Elmer). Streptavidin-APC (Perkin-Elmer) and Eu-labeled p-Tyr100 antibody (Perkin-Elmer) in 1× Lance buffer are added in a 25 μL volume to give final concentrations of 100 nM and 2.5 nM, respectively, and the mixture is allowed to incubate for one hour. The TR-FRET signal is measured on a multimode plate reader with an excitation wavelength (λEx) of 330 nm and detection wavelengths (λEm) of 615 and 665 nm. Activity is determined by the ratio of the fluorescence at 665 nm to that at 615 nm. For each compound, enzyme activity is measured at various concentrations of compound. Negative control reactions are performed in the absence of inhibitor in replicates of six, and two no-enzyme controls are used to determine baseline fluorescence levels. Inhibition constants, Ki(app), ware obtained using the program BatchKi (Kuzmic et al. (2000), Anal. Biochem. 286:45-50). IC50s are obtained according to the equation: IC50={Ki(app)/1+[ATP]/Km^ATP)}+[E]total/2;
For all kinases, [ATP]=Km^ATP, [Btk]total=0.5 nM and [Lck]total=6 nM.
Kinase activity is measured in vitro using electrophoretic mobility shift assay. The kinase reactions are assembled in a total volume of 25 μL in 384 well plates. The reactions comprise: BTK enzyme (1 nM, N-terminal His6-tagged, recombinant, full-length, human BTK purified from baculovirus Sf21 insect cell system), inhibitor, ATP (16 μM, the apparent Km for the kinase), fluorescently labeled peptide substrate (1 μM, FAM-GEEPLYWSFPAKKK-NH2 (SEQ ID NO: 2)) in a reaction buffer composed of 100 mM HEPES, pH7.5, 5 mM MgCl2 1 mM DTT, 0.1% bovine serum albumin, 0.01% Triton X-100, and 1% DMSO. The reaction is incubated for one hour and is quenched by the addition of 45 μL of termination buffer (100 mM HEPES, pH7.5, 0.01% Triton X-100, 30 mM EDTA). The terminated reactions are analyzed using 12 channel LabChip® 3000 microfluidic detection instrument (Caliper Life Sciences). The enzymatic phosphorylation of the peptide results in a change in net charge, enabling electrophoretic separation of product from substrate peptide. As substrate and product peptides are separated, two peaks of fluorescence are observed. Change in the relative fluorescence intensity of the substrate and product peaks is the parameter measured, reflecting enzyme activity. In the presence of an inhibitor, the ratio between product and substrate is altered: the signal of the product decreases, while the signal of the substrate increases.
Activity in each sample is determined as the product to sum ratio (PSR):P/(S+P), where P is the peak height of the product peptide and S is the peak height of the substrate peptide. For each compound, enzyme activity is measured at various concentrations (12 concentrations of compound spaced by 3× dilution intervals). Negative control samples (0%−inhibition in the absence of inhibitor) and positive control samples (100%−inhibition, in the presence of 20 mM EDTA) are assembled in replicates of four and are used to calculate %−inhibition values for each inhibitor at each concentration. Percent inhibition (Pinh) is determined using following equation: […]

T1 sequence (Q06187 whole entry): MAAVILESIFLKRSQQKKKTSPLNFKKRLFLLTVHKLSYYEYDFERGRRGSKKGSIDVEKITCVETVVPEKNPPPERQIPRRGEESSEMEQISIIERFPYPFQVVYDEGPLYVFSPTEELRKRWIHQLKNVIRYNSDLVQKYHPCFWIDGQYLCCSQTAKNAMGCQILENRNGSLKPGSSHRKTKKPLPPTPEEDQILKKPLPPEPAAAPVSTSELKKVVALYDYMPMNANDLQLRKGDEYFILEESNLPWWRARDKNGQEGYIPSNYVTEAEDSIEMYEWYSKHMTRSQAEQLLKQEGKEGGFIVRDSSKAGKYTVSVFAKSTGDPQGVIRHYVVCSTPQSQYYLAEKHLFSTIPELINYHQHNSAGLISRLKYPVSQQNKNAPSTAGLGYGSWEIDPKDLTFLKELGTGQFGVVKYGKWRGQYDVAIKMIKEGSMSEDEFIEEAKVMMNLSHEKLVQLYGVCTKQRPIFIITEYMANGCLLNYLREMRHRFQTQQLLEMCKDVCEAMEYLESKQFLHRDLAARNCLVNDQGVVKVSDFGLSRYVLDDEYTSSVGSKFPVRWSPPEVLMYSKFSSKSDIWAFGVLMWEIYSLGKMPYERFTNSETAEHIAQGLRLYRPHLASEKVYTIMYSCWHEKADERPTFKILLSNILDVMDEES

IC50 (Btk [1]) [nM]	IC50 (EGFR) [nM]	IC50 (LCK) [nM]	IC50 (lymphoma cell line DOHH2) [nM]	IC50 (Btk [2]) [nM]	Compound
≤ 10	≤ 10	10 to 100	< 5	≤ 10	C=CC(=O)N1CC[C@@H](n2nc(-c3ccc(C(=O)Nc4cc(C)ccn4)cc3)c3c(N)ncnc32)C1 [Compound ID 20, (R)-4-(1-(1-acryloylpyrrolidin-3-yl)-4-amino-1H-pyrazolo[3,4-d]pyrimidin-3-yl)-N-(4-methylpyridin-2-yl)benzamide]
≤ 10	≤ 10	10 to 100	< 5	≤ 10	C=CC(=O)N1CC[C@@H](n2nc(-c3ccc(C(=O)Nc4cc(C(F)(F)F)ccn4)cc3)c3c(N)ncnc32)C1 [Compound ID 21, (R)-4-(1-(1-acryloylpyrrolidin-3-yl)-4-amino-1H-pyrazolo[3,4-d]pyrimidin-3-yl)-N-(4-(trifluoromethyl)pyridin-2-yl)benzamide]
			< 5	≤ 10	C=CC(=O)N1CC[C@@H](n2nc(-c3ccc(C(=O)Nc4cc(C(C)C)ccn4)cc3)c3c(N)ncnc32)C1 [Compound ID 23, (R)-4-(1-(1-acryloylpyrrolidin-3-yl)-4-amino-1H-pyrazolo[3,4-d]pyrimidin-3-yl)-N-(4-isopropylpyridin-2-yl)benzamide]
			< 5	≤ 10	C=CC(=O)N1CCC[C@@H](n2nc(-c3ccc(C(=O)Nc4cc(C)ccn4)cc3)c3c(N)ncnc32)C1 [Compound ID 26, (R)-4-(1-(1-acryloylpiperidin-3-yl)-4-amino-1H-pyrazolo[3,4-d]pyrimidin-3-yl)-N-(4-methylpyridin-2-yl)benzamide]
			< 5	≤ 10	C=CC(=O)N1CCC[C@@H](n2nc(-c3ccc(C(=O)Nc4cc(C(F)(F)F)ccn4)cc3)c3c(N)ncnc32)C1 [Compound ID 27, (R)-4-(1-(1-acryloylpiperidin-3-yl)-4-amino-1H-pyrazolo[3,4-d]pyrimidin-3-yl)-N-(4-(trifluoromethyl)pyridin-2-yl)benzamide]
			< 5	≤ 10	C=CC(=O)N1CC[C@@H](n2nc(-c3ccc(C(=O)Nc4cc(CCC)ccn4)cc3)c3c(N)ncnc32)C1 [Compound ID 30, (R)-4-(1-(1-acryloylpyrrolidin-3-yl)-4-amino-1H-pyrazolo[3,4-d]pyrimidin-3-yl)-N-(4-propylpyridin-2-yl)benzamide]
			< 5	≤ 10	C=CC(=O)N1CCC[C@@H](n2nc(-c3ccc(C(=O)Nc4cc(CCC)ccn4)cc3)c3c(N)ncnc32)C1 [Compound ID 31, (R)-4-(1-(1-acryloylpiperidin-3-yl)-4-amino-1H-pyrazolo[3,4-d]pyrimidin-3-yl)-N-(4-propylpyridin-2-yl)benzamide]
